# According to US20220160703A1, “TUMOR-SELECTIVE COMBINATION THERAPY” (The Board of Regents of The University of Texas System, priority 2019, published 2022):
# How the values were obtained:
# MC38 cells = assay: 7-AAD and Annexin V cell death, flow cytometry; assay type: cell-based, murine; conditions: lethal dose of β-lap (4 μM)
# Protocol: (FIG. 1A) NQO1 positive tumor cell lines MC38, TC-1 and Ag104Ld and NQO1 negative cell lines Panc02 and B16 grown in 48-well plates were treated with β-lap (0-8 μM) for a 3 hr followed by washing and replacing medium. Cell viability was determined by Sulforhodamine B (SRB) Assay 4 days later. […] (FIG. 1C) MC38 cells with CRISPR-based NQO1 Knockout (MC38 NQO1KO #5) planted in 96-well plates were exposed to β-lap for 3 hr and cell survival was assessed 48 hr later. […] (FIG. 1E) MC38 cells were exposed to a lethal dose of β-lap (4 μM) for indicated times, then stained with 7-AAD and Annexin V followed by flow cytometry analysis. […] (FIG. 1H) MC38 and B16 NQO1 #1 cells were exposed to β-lap for a 3 hr. Catalase (1000 U/ml) was added and cell survival was assessed 48 hr later. (FIG. 1I) C57BL/6 mice (n=5/group) were transplanted with MC38 cells and treated with β-lap (0.03 mg, 0.1 mg or 0.3 mg, intratumorally; or 25 mg/kg, i.v.) every other day for four times. […] Tumor growth was monitored twice a week.
# (§1) (FIG. 21A) Viability of murine cell lines following IB-DNQ treatment for 4 h. […] (FIGS. 21D-E) DNA double strand break was assessed via comet assay (FIG. 21D) and γH2AX foci/nuclei immunofluorescence (FIG. 21E). (FIG. 21F) MC38 cell death after a 4 h exposure to IB-DNQ was determined by 7AAD and Annexin V staining using flow cytometry analysis.
# ROS = assay: Cellular ROS / H2O2 detection; assay type: cell-based, murine; conditions: for ROS level: 3 hr, DCFDA
# Protocol: (FIG. 1A) NQO1 positive tumor cell lines MC38, TC-1 and Ag104Ld and NQO1 negative cell lines Panc02 and B16 grown in 48-well plates were treated with β-lap (0-8 μM) for a 3 hr followed by washing and replacing medium. Cell viability was determined by Sulforhodamine B (SRB) Assay 4 days later. […] (FIG. 1C) MC38 cells with CRISPR-based NQO1 Knockout (MC38 NQO1KO #5) planted in 96-well plates were exposed to β-lap for 3 hr and cell survival was assessed 48 hr later. […] (FIG. 1E) MC38 cells were exposed to a lethal dose of β-lap (4 μM) for indicated times, then stained with 7-AAD and Annexin V followed by flow cytometry analysis. […] (FIG. 1H) MC38 and B16 NQO1 #1 cells were exposed to β-lap for a 3 hr. Catalase (1000 U/ml) was added and cell survival was assessed 48 hr later. (FIG. 1I) C57BL/6 mice (n=5/group) were transplanted with MC38 cells and treated with β-lap (0.03 mg, 0.1 mg or 0.3 mg, intratumorally; or 25 mg/kg, i.v.) every other day for four times. (FIG. 1J) C57BL/6 mice were transplanted with MC38 cells (NQO1 WT or KO, n=5/group) and treated with β-lap (0.3 mg, i.t.) every other day for four times. Tumor growth was monitored twice a week.
# (FIG. 8A) NQO1 expression in multiple murine tumor lines was immunoblotted as indicated. (FIG. 8B) NQO1^+ cells (MC38, TC-1, and Ag104Ld) and NQO1^− cells (B16 and Pan02) were treated for 3 h with β-lap±DIC (50 μM). Drugs were removed and survival assessed 5 days later. (FIG. 8C) Relative H2O2 levels were assessed in various cells treated with β-lap for 3 h at the indicated doses using CellRox-Glo. Values were normalized to DMSO-treated control cells. (FIG. 8D) TC-1 cells exposure to β-lap for 12 h, later PARP-1 and Caspase-3 levels were analyzed by western blotting assay. […]
# as §1
# B16 tumors = assay: B16 (NQO1 null or NQO1 overexpressing) tumor model; assay type: in vivo, mice
# A549 tumor = assay: A549 xenograft in immune-reconstituted C57BL/6 Rag1−/− mice; assay type: in vivo; conditions: β-lap 0.2 mg i.t. four times
# Protocol: FIGS. 2A-F. β-Lap's antitumor effect is CD8^+ T cell dependent. (FIG. 2A) MC38 cells were subcutaneously transplanted into C57BL/6 WT (n=5-6/group) and Rag1 KO mice (n=5/group), respectively. Tumor bearing mice were treated with β-lap (0.3 mg, i.t.) every other day for four times. Numbers of tumor free mice after treatment were shown. (FIG. 2B) MC38 tumor bearing C57BL/6 mice (n=5/group) were treated with β-lap (0.3 mg, i.t.) every other day for four times. For CD8^+ T cell depletion, 200 μg of anti-CD8 antibodies were intraperitoneally injected four times at three days interval during the treatment. (FIG. 2C) TC-1 tumor bearing C57BL/6 mice (n=4-5/group) were treated with β-lap (0.1 mg, i.t.) for four times with or without anti-CD8 antibodies. (FIG. 2D) Naïve (n=5/group) and β-lap cured MC38 tumor free (n=7/group) C57BL/6 mice were rechallenged subcutaneously with 3×10^6 MC38 cells on the opposite site from the primary tumor 30 days after complete rejection, and tumor growth curve was monitored. […] Tumor growth was measured twice a week. Data are shown as mean±SEM from three independent experiments. **P<0.01, ***P<0.001, ****P<0.0001 determined by two-way ANOVA.
# Immune reconstituted mouse models. […] Tumor volumes were measured at least twice weekly.
# MC38 tumor = assay: MC38 subcutaneous syngeneic tumor model; assay type: in vivo, mice
compound,measurement,setting,value
"CC1(C)CCC2=C(O1)c1ccccc1C(=O)C2=O [β-lap, β-lapachone]",mode of cell death,MC38 cells,"rapid cell swelling, membrane rupture and Annexin V+/7AAD+ cell death without caspase activation"
same,H2O2 level,"ROS; NQO1+ cells but not NQO1− cells, 3 h exposure, CellRox-Glo",High level of H2O2
same,ROS level,ROS; NQO1 null lines,much less
same,ROS level,ROS; NQO1 positive murine tumor line,high level of ROS
same,tumor response,"B16 tumors; NQO1null parental B16, β-lap 0.3 mg i.t. four times",didn't response
same,tumor response,"B16 tumors; NQO1 overexpressing B16 clone #1 and #4, β-lap 0.3 mg i.t. four times",dramatic tumor suppression
same,TGI,"B16 tumors; NQO1 overexpressing B16 tumors (about 100 mm^3), β-lap 0.3 mg i.t. four times, anti-PD-L1 150 μg i.p. three times",68.67%
same,tumor growth without T cell transfer,A549 tumor; no OT-1 LN cells,only partially inhibited
same,tumors completely rejected,A549 tumor; with 2×10^6 OT-1 LN cells,50%
same,tumor growth with irradiation,"MC38 tumor; 10 Gy + 0.1 mg β-lap, 3 i.t. injections, tumors 100 mm^3",significant inhibition of tumor growth
same,response with irradiation,"MC38 tumor; 10 Gy + β-lap 30 mg/kg i.p. every other day, 6 injections, tumors 50 mm3",significant synergistic responses
same,therapeutic effect in NQO1 knockout MC38 mouse models,"MC38 tumor; NQO1 KO MC38, 0.3 mg i.t. four times",abolished
same,mice cured,"MC38 tumor; WT C57BL/6, 4 doses of β-lap (0.3 mg, i.t.)",50%
same,mice with complete tumor rejection,"MC38 tumor; local β-lap 15 mg/kg, 7/15 mice",46.7%
same,TGI,"MC38 tumor; small tumors (about 50 mm^3), β-lap 0.3 mg i.t. four times",93.0%
same,antitumor efficacy with anti-IFNAR blocking antibody,"MC38 tumor; β-lap 0.1 mg i.t., anti-IFNAR Ab 150 μg",greatly impaired the antitumor efficacy
same,effect with HMGB1 blockade,MC38 tumor; β-lap 0.3 mg i.t. + anti-HMGB1 200 μg i.p.,diminished the effect
same,therapeutic effect with neutrophil depletion,MC38 tumor; β-lap 0.3 mg i.t. + anti-Ly-6G 200 μg,greatly impaired the therapeutic effect
same,tumor regression in IFNAR knockout mice,"MC38 tumor; β-lap 0.3 mg i.t. day 9, 12, 15",totally abrogated
same,therapeutic effect in Ifnar−/− mice,MC38 tumor; β-lap 0.3 mg i.t. four times,abrogated
same,antitumor effect alone or with CD4+ T cell depletion,MC38 tumor; β-lap 0.3 mg i.t. ± anti-CD4 200 μg,controlled MC38 tumor growth
same,"tumor growth, systemic treatment","MC38 tumor; β-lap 30 mg/kg i.p. six times, anti-PD-L1, tumors about 50-100 mm^3",moderate inhibition of tumor growth
